From patent US10654834B2 (Venenum Biodesign, LLC, priority 2016, dated 2020)

Legend:
mouse TGR5 receptor = target: T1, mouse TGR5 receptor (Mus musculus, UniProt Q80SS6); test: Mouse TGR5 HTRF cAMP production assay (HEK293-EBNA cells, Cisbio cAMP HiRange kit); type: cell-based; details: HEK293-EBNA cells overexpressing mouse TGR5, HTRF cAMP assay
T1 construct: host or cells: HEK293-EBNA (293 c18, ATCC CRL10852)
T1 sequence (Q80SS6 1-329): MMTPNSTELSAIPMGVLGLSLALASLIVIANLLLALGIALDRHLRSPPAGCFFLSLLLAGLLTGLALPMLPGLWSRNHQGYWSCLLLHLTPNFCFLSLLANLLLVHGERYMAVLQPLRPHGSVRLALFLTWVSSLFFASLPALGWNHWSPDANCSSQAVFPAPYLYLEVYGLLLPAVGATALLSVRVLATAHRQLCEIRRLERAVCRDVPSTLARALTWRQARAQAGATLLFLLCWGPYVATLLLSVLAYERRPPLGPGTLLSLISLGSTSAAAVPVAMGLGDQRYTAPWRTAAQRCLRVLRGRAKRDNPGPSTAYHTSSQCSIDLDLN
Outline: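 HEK293-EBNA cells stably expressing mouse TGR5 (episomal vector) were suspended in serum-free DMEM with 500 μM IBMX and exposed to 12-point half-log compound dilutions for 1 h at room temperature. cAMP was detected by HTRF (d2-cAMP/anti-cAMP cryptate, 1 h, room temperature), giving EC50 from duplicates.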

human TGR5 receptor = target: T2, human TGR5 receptor (Homo sapiens, UniProt Q8TDU6); test: Human TGR5 cAMP production assay (hTGR5-CHO cells, DiscoveRx cAMP XS+ kit); type: cell-based; details: luminescent cAMP assay, read-out: Human TGR5 Lum. cAMP Activity (EC50)
T2 construct: host or cells: CHO-K1 (hTGR5-CHO)
T2 sequence (Q8TDU6 1-330): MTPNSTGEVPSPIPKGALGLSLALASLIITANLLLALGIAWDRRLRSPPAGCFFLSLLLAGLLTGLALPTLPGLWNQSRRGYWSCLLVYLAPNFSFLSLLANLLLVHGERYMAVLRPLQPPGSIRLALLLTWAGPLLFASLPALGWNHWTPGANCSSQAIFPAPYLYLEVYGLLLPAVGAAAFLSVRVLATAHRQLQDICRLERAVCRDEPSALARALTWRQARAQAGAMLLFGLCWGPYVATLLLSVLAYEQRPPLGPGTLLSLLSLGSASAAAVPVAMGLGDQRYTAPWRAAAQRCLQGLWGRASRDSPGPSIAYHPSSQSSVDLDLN
Outline: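 CHO-K1 cells stably expressing hTGR5, in PBS with IBMX and cAMP antibody, treated with half-log compound dilutions for 1 h at room temperature. cAMP measured by enzyme-fragment complementation luminescence after overnight detection; EC50 values reported.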

[1] = Pharmacokinetic profile in mice after oral gavage; type: in vivo, mouse; details: mouse; fasted male Hilltop mice, 10 mg/kg oral gavage, plasma; read-out: Cmax
Method: Pharmacokinetic Profile in Mice
In this series of studies, the pharmacokinetic profile characteristics of compounds of the present invention were evaluated. The plasma concentration levels of the compounds were monitored in the blood stream (i.e., plasma) after oral gavage using Cmax, and area under the curve (AUC).
8 week old male Hilltop mice were fasted overnight. Animals were randomized into groups (n=9) by body weight. Mice were dosed with 10 mg/kg compound (in 20% PEG400/80% 0.5% carboxymethylcellulose (medium viscosity)+0.25% Tween-80) at a volume of […] through oral gavage. Blood was collected via orbital bleeding at 0, 0.25, 0.5, 1, 2, and 4 h post-dose, with no one mouse having more than 3 blood draws. Blood was collected in EDTA coated tubes. Samples were stored at −20° C. until analysis.
Quantitation of compound levels in plasma was accomplished by LC-MS/MS analysis. Standard curve and quality control samples were prepared in male CD-1 mouse plasma containing EDTA K^2+ as an anticoagulant at final concentrations ranging from 500 to 0.1 ng/mL. The plasma samples, calibration curve standards, and quality control samples were prepared in an identical method in a 96-well deep plate (1 mL) with a quenching solution (1:1 mixed acetonitrile:methanol containing the internal standard Reserpine @ 400 ng/mL). Low volume samples were supplemented with CD-1 mouse plasma. The plate was mixed on multi-tube vortexer for 1 min and centrifuged at 4000 rpm for 30 min at 4° C. (Sorvall® Super T21) before LC-MS/MS analysis. LC conditions were developed and optimized based on each compound as needed. The outlet of the column was coupled to AB Sciex 4000 QTrap Mass Spectrometer (AB Sciex, Brugg Switzerland). Detection was carried out using multiple reaction monitoring mode with positive-ion detection focusing. The pharmacokinetic parameters were derived from the plasma-time data and calculated using the standard non-compartmental method with WinNonlin (Pharsight, Mountain View, Calif.) or PK Solver (Comp. Meth. Prog. Biomed. (2010), 99, 306-314).
Values reported are the mean plasma concentration of three mice. […]

| Structure (SMILES) | EC50 (mouse TGR5 receptor) | EC50 (human TGR5 receptor) | Cmax [1] |
| --- | --- | --- | --- |
| CCOC(=O)CCN/C(=N\C#N)NCCC1CCN(c2cc(N3CC[C@H]3C(=O)NCCc3ccc(C#N)cc3)nc(C(F)(F)F)n2)CC1 [Compound 350, (S,Z)-ethyl 3-(2-cyano-3-(2-(1-(6-(2-((4-cyanophenethyl)carbamoyl)azetidin-1-yl)-2-(trifluoromethyl)pyrimidin-4-yl)piperidin-4-yl)ethyl)guanidino)propanoate] | < 100 nM | < 100 nM | – |
| N#Cc1ccc(CCNC(=O)[C@@H]2CCCN2c2cc(-c3ccc(CCNC(=O)NCCCS(=O)(=O)O)cc3)nc(C(F)(F)F)n2)cc1 [Compound 195, (S)-3-(3-(4-(6-(2-((4-cyanophenethyl)carbamoyl)pyrrolidin-1-yl)-2-(trifluoromethyl)pyrimidin-4-yl)phenethyl)ureido)propane-1-sulfonic acid] | < 100 nM | 100 to 999 nM | – |
| O=C(O)CCCC1CCN(c2cc(N3CC[C@H]3C(=O)NCCc3ccc(C(F)(F)F)cc3)nc(C(F)(F)F)n2)CC1 [Compound 233, (S)-4-(1-(2-(trifluoromethyl)-6-(2-((4-(trifluoromethyl)phenethyl)carbamoyl)azetidin-1-yl)pyrimidin-4-yl)piperidin-4-yl)butanoic acid] | < 100 nM | < 100 nM | – |
| N#Cc1ccc(CCNC(=O)[C@@H]2CCN2c2cc(N3CCC(CCCC(=O)NCCO)CC3)nc(C(F)(F)F)n2)cc1 [Compound 361, (S)-N-(4-cyanophenethyl)-1-(6-(4-(4-((2-hydroxyethyl)amino)-4-oxobutyl)piperidin-1-yl)-2-(trifluoromethyl)pyrimidin-4-yl)azetidine-2-carboxamide] | < 100 nM | < 100 nM | – |
| COC(=O)[C@@H](N)CCCCNC(=O)CCCC1CCN(c2cc(N3CCC[C@H]3C(=O)NCCc3ccc(C#N)cc3)nc(C(F)(F)F)n2)CC1 [Compound 71, (S)-methyl 2-amino-6-(4-(1-(6-((S)-2-((4-cyanophenethyl)carbamoyl)-pyrrolidin-1-yl)-2-(trifluoromethyl)-pyrimidin-4-yl)piperidin-4-yl)butanamido)hexanoate] | < 100 nM | < 100 nM | – |
| CN(CCS(=O)(=O)O)c1c(NCCC2CCN(c3cc(N4CC[C@H]4C(=O)NCCc4ccc(C#N)cc4)nc(C(F)(F)F)n3)CC2)c(=O)c1=O [Compound 299, (S)-2-((2-((2-(1-(6-(2-((4-cyanophenethyl)carbamoyl)azetidin-1-yl)-2-(trifluoromethyl)pyrimidin-4-yl)piperidin-4-yl)ethyl)amino)-3,4-dioxocyclobut-1-en-1-yl)(methyl)amino)ethanesulfonic acid] | < 100 nM | < 100 nM | – |
| Cc1ccsc1-c1cc(N2CCC[C@H]2C(=O)NCCc2ccc(C#N)cc2)nc(C(F)(F)F)n1 [Compound 172, (S)-N-(4-cyanophenethyl)-1-(6-(3-methylthiophen-2-yl)-2-(trifluoromethyl)pyrimidin-4-yl)pyrrolidine-2-carboxamide] | 100 to 999 nM | 100 to 999 nM | – |
| N#Cc1ccc(CCNC(=O)[C@@H]2CCCN2c2cc(-c3ccc(COCC(=O)NCS(=O)(=O)O)cc3)cc(C(F)(F)F)n2)cc1 [Compound 209, (S)-(2-((4-(2-(2-((4-cyanophenethyl)carbamoyl)pyrrolidin-1-yl)-6-(trifluoromethyl)pyridin-4-yl)benzyl)oxy)acetamido)methanesulfonic acid] | < 100 nM | < 100 nM | – |
| O=C(CCC1CCN(c2cc(N3CC[C@H]3C(=O)NCCc3ccc(C(F)(F)F)cc3)nc(C(F)(F)F)n2)CC1)NCCS(=O)(=O)O [Compound 254, (S)-2-(3-(1-(2-(trifluoromethyl)-6-(2-((4-(trifluoromethyl)-phenethyl)carbamoyl)azetidin-1-yl)pyrimidin-4-yl)piperidin-4-yl)propanamido)ethanesulfonic acid] | < 100 nM | 100 to 999 nM | – |
| N#Cc1ccc(CCNC(=O)[C@@H]2CCCN2c2cc(N3CCC(CCCC(=O)NCCNc4nccc(C(=O)O)n4)CC3)nc(C(F)(F)F)n2)cc1 [Compound 102, (S)-2-((2-(4-(1-(6-(2-((4-cyanophenethyl)carbamoyl)pyrrolidin-1-yl)-2-(trifluoromethyl)pyrimidin-4-yl)piperidin-4-yl)butanamido)ethyl)amino) pyrimidine-4-carboxylic acid] | < 100 nM | < 100 nM | – |

The remaining lines, values ahead:

| EC50 (mouse TGR5 receptor) | EC50 (human TGR5 receptor) | Cmax [1] | Structure (SMILES) |
| --- | --- | --- | --- |
| < 100 nM | < 100 nM | 2.8 ng/mL | N#Cc1ccc(CCNC(=O)[C@@H]2CCCN2c2cc(N3CCC(CCCC(=O)N[C@H](CCCNC(=N)N)C(=O)O)CC3)nc(C(F)(F)F)n2)cc1 [Compound 73, (R)-2-(4-(1-(6-((S)-2-((4-cyanophenethyl)carbamoyl)pyrrolidin-1-yl)-2-(trifluoromethyl)pyrimidin-4-yl)piperidin-4-yl)butanamido)-5-guanidinopentanoic acid] |
| < 100 nM | 100 to 999 nM | – | N#Cc1ccc(CCNC(=O)[C@@H]2CCCN2c2cc(-c3ccc(CCNC(=O)NCCS(=O)(=O)O)cc3)nc(C(F)(F)F)n2)cc1 [Compound 194, (S)-2-(3-(4-(6-(2-((4-cyanophenethyl)carbamoyl)pyrrolidin-1-yl)-2-(trifluoromethyl)pyrimidin-4-yl)phenethyl)ureido)ethanesulfonic acid] |
| < 100 nM | < 100 nM | – | N#Cc1ccc(CCNC(=O)[C@@H]2CCCN2c2cc(N3CCC(CCCC(=O)N[C@H](CCCNC(=N)N)C(=O)N[C@H](CCC(=O)O)C(=O)O)CC3)nc(C(F)(F)F)n2)cc1 [Compound 203, (R)-2-((R)-2-(4-(1-(6-((S)-2-((4-cyanophenethyl)carbamoyl)pyrrolidin-1-yl)-2-(trifluoromethyl)pyrimidin-4-yl)piperidin-4-yl)butanamido)-5-guanidino-pentanamido)pentanedioic acid] |
| < 100 nM | < 100 nM | – | N=C(N)NCCCC1CCN(c2cc(N3CCC[C@H]3C(=O)NCCc3ccc(C(F)(F)F)cc3)nc(C(F)(F)F)n2)CC1 [Compound 132, (S)-1-(6-(4-(3-guanidinopropyl)piperidin-1-yl)-2-(trifluoromethyl)pyrimidin-4-yl)-N-(4-(trifluoromethyl)phenethyl)-pyrrolidine-2-carboxamide] |
| < 100 nM | < 100 nM | – | O=C(CS(=O)(=O)O)NCCC1CCN(c2cc(N3CC[C@H]3C(=O)NCCc3ccc(C(F)(F)F)cc3)nc(C(F)(F)F)n2)CC1 [Compound 279, (S)-2-oxo-2-((2-(1-(2-(trifluoromethyl)-6-(2-((4-(trifluoromethyl)phenethyl)carbamoyl)azetidin-1-yl)pyrimidin-4-yl)piperidin-4-yl)ethyl)amino)-ethanesulfonic acid] |
| < 100 nM | 100 to 999 nM | – | N#Cc1ccc(CCNC(=O)[C@@H]2CCCN2c2cc(-c3ccc(CCC(=O)O)cc3)nc(C(F)(F)F)n2)cc1 [Compound 188, (S)-3-(4-(6-(2-((4-cyanophenethyl)carbamoyl)pyrrolidin-1-yl)-2-(trifluoromethyl)pyrimidin-4-yl)phenyl)propanoic acid] |
